Results as given in paper PMC7615677 (Science translational medicine, 2023).
“And” between values parts separate entries of the source, which are not always exact repeats. Equal entries are not always repeated.

How the values were obtained:
[1] = test system: L. tropica; test: Leishmania intramacrophage in vitro assay; type: cell-based; details: L. tropica MHOM/AF/2015/HTD7
Procedure: (§1) A drug incubation period of 96 h was applied, and cells were stained with Giemsa for microscopic evaluation of cellular amastigote burdens. Percentage reduction compared to the burden in the infected non-treated control wells was used as a measure for drug activity.

[2] = test system: L. panamensis; test: Leishmania intramacrophage in vitro assay; type: cell-based; details: L. panamensis MHOM/PA/71/LS94
Procedure: as §1

[3] = test system: L. guyanensis; test: Leishmania intramacrophage in vitro assay; type: cell-based; details: L. guyanensis MHOM/PE/02/PER 054/0
Procedure: as §1

[4] = test system: L. infantum; test: Leishmania intramacrophage in vitro assay; type: cell-based
Procedure: as §1

[5] = test system: L. major; test: Leishmania intramacrophage in vitro assay; type: cell-based
Procedure: as §1

[6] = In vivo pharmacokinetics; design: species or system female BALB/c mice; details: female, BALB/c, plasma
Procedure: Single dose intravenous (IV) pharmacokinetic (PK) studies in male Sprague Dawley rats and IV and oral PK studies in female BALB/c mice were conducted at Monash University. […] Blood was sampled via a cannula implanted in the carotid artery (also on the day prior to dosing) at pre-determined time points up to 24 h post-dose. Samples were transferred to vials containing heparin as an anticoagulant, gently mixed and centrifuged, and plasma separated for subsequent quantitative analysis using LC-MS. […] A dose of 25 mg/kg prepared in an aqueous suspension vehicle containing 0.5% hydroxypropyl methylcellulose, 0.5% benzyl alcohol and 0.4% polysorbate 80 (0.2 mL per mouse) was also dosed via oral gavage. Mouse blood was sampled via submandibular bleed up to 24 h post-dose (n=2 mice per time point, n=3 samples per mouse) into vials containing heparin and plasma was separated for quantitative analysis as described above.
Additional PK studies were also conducted by WuXi AppTec Co, Ltd (Shanghai, China) according to protocols reviewed and approved by DNDi. […] IV and oral formulations for rats, mice and hamsters were the same as described above. For dogs, the IV dose was administered in saline containing 2% DMSO and 3% Solutol HS-15 and the oral formulation was as described above. Blood was sampled up to 48 h post-dose into vials containing potassium EDTA as an anticoagulant, proteins were precipitated with acetonitrile and plasma was separated and assayed by LC-MS.
Single dose pharmacokinetic parameters (clearance, volume of distribution and half-life) were initially estimated using non-compartmental methods and oral bioavailability was calculated using the ratio of the dose corrected AUC after oral dosing relative to that after IV administration. […] Where a full concentration versus time profile was obtained from a single animal, parameters were estimated for each animal and mean and standard deviations calculated. In the case of mice where sparse sampling was used with multiple animals per time point, the data analysis was conducted using the mean profile.

[7] = test system: L. infantum; test: Promastigote back-transformation assay on organs of treated hamsters; type: in vivo, golden hamsters; details: for parasite score, Bone-marrow / parasite score, Liver / parasite score, Spleen: 5 days, individual animals 1-5
Text: (§2) Female golden hamsters (5 per treatment group) were infected through intracardiac administration of 2x10^7 L. infantum amastigotes obtained from the spleen of a heavily infected donor hamster. […] After 5-day treatment period, followed by a 10-day wash out period, animals were sacrificed, and parasites burden assessed in the three target organs (liver, spleen, and bone-marrow). For this assessment, organs of individual animals were weighed, except for bone-marrow thus only providing a semi-quantitative evaluation only. Impression smears were Giemsa-stained for microscopic evaluation of amastigote burden, expressed as LDU (= mean number of amastigotes/cell × organ weight in mg) and the results were expressed as a percentage reduction compared to the burdens in the control group (vehicle as placebo). For evaluating the presence of viable residual burden after treatment, a promastigote back-transformation assay was conducted. This consisted of the incubation at ambient temperature of aseptically collected pieces of spleen or liver tissue in 1 mL of promastigote back-transformation medium in 24-well plates. For the bone-marrow, resected femurs were flushed with 1 mL medium. The medium consists of HOMEM pH 6.0 prepared as described elsewhere ([5]) with 10% fetal bovine serum (Gibco), 2.5% penicillin/streptomycin and 1% gentamicin (Merck). A qualitative assessment of the presence of promastigotes was made after 3 and 5 days of incubation and a score was attributed (+, ++ or +++) based on parasite density in the positive wells.
Supplementary Materials and methods
Promastigote transformation assay
For evaluating the presence of viable residual burdens after treatment, a promastigote back-transformation assay is conducted. This test consists of the incubation at ambient temperature of aseptically collected pieces of spleen or liver tissue in 1 mL of promastigote back-transformation medium in 24-well plates. For the bone-marrow, resected femurs are flushed with 1 mL medium. The medium consists of HOMEM pH 6.0 prepared as described elsewhere (1) with 10% fetal bovine serum (Gibco) and 2.5% penicillin/streptomycin and 1% gentamicin (Merck). A qualitative assessment of the presence of promastigotes is made after 3 and 5 days of incubation and a score is attributed (+, ++ or +++) based on parasite density in the positive […]
Supplementary Information on Tables
L. infantum MHOM/FR/96/LEM3323 Cl4 was originally obtained from a French HIV-positive patient (Languedoc area in Southern France) and provided by Dr. Laurence Lachaud of the Centre National de Référence des Leishmanioses (CNRL), Montpellier, France. The miltefosine and paromomycin resistant lines (LEM3323 Cl4 MIL-R and PMM-R) were obtained by successive in vitro selection cycles on intracellular amastigotes (2, 3)

[8] = test system: L. infantum; test: Chronic hamster infection model (VL); type: in vivo, golden hamsters
Text: as §2, with “A qualitative assessment of the presence of promastigotes was made after 3 and 5 days of incubation and a score was attributed (+, ++ or +++) based on parasite density in the positive wells.” left out

[9] = L. infantum MHOM/BR/2007/WC (L3015)
[10] = L. infantum MHOM/ES/2016/LLM-2346
[11] = L. infantum MHOM/FR/96/LEM3323 Cl4 MIL-R (miltefosine resistant)
[12] = L. infantum MHOM/FR/96/LEM3323 Cl4 PM-R (paromomycin resistant)
[13] = L. infantum MHOM/MA/67/ITMAP263

SMILES: Cc1[nH]c2nc(N)nc(C)c2c1-c1ccc(C#N)c2c1OCO2 [DNDI-6174]
- EC50 [1]: 360 nM
- EC90 [1]: 2180 nM
- EC50 [2]: 40 nM
- EC90 [2]: 85 nM
- EC50 [3]: 12 nM
- EC90 [3]: 39 nM
- EC50 [4, 9]: 70 nM
- EC90 [4, 9]: 180 nM
- EC50 [4, 10]: 210 nM
- EC90 [4, 10]: 1520 nM
- EC50 ([4]; L. infantum MHOM/FR/96/LEM3323): 50 nM
- EC90 ([4]; L. infantum MHOM/FR/96/LEM3323): 180 nM
- EC50 [4, 11]: 70 nM
- EC90 [4, 11]: 220 nM
- EC50 [4, 12]: 80 nM
- EC90 [4, 12]: 170 nM
- EC50 [4, 13]: 160 nM
- EC90 [4, 13]: 440 nM
- EC50 ([5]; L. major MHOM/IL/81/Friedlin): 90 nM
- EC90 ([5]; L. major MHOM/IL/81/Friedlin): 900 nM
- EC50 ([5]; L. major MHOM/SA/85/JISH118): 740 nM
- EC90 ([5]; L. major MHOM/SA/85/JISH118): 11400 nM
- clearance ([6]; mouse, iv, 2 mg/kg, intravenous 2.0 mg/kg, read-out: Plasma CL): 7.46 mL/min/kg
- half-life ([6]; Mouse, intravenous 2.0 mg/kg, read-out: Apparent t1/2 (converted)): 2 h
- Cmax ([6]; Mouse, oral 25 mg/kg): 10400 ng/mL
- Tmax ([6]; Mouse, oral 25 mg/kg): 1 h
- bioavailability ([6]; Mouse, oral 25 mg/kg): > 100%
- parasite score, Bone-marrow ([7]; 3.125 mg/kg bid): ++
- parasite score, Liver ([7]; 3.125 mg/kg bid): + (3×) and - (2×)
- parasite score, Spleen ([7]; 3.125 mg/kg bid): ++
- parasite score, Bone-marrow ([7]; 12.5 mg/kg bid): - and +
- parasite score, Liver ([7]; 12.5 mg/kg bid): -
- parasite score, Spleen ([7]; 12.5 mg/kg bid): - and +
- parasite score, Bone-marrow ([7]; 12.5 mg/kg qd): + (3×) and ++ (2×)
- parasite score, Liver ([7]; 12.5 mg/kg qd): + (3×) and - (2×)
- parasite score, Spleen ([7]; 12.5 mg/kg qd): ++ (4×) and +
- parasite score, Bone-marrow ([7]; 25 mg/kg qd): + and - (4×)
- parasite score, Liver ([7]; 25 mg/kg qd): - (4×) and +
- parasite score, Spleen ([7]; 25 mg/kg qd): -
- parasite score, Bone-marrow ([7]; 50 mg/kg qd): - (4×) and +
- parasite score, Liver ([7]; 50 mg/kg qd): - (4×) and +
- parasite score, Spleen ([7]; 50 mg/kg qd): - (4×) and +
- emergence of viable promastigotes from recovered organs, in words ([7]; DNDI-6174 treated animals): almost all the organs recovered proved to be negative in culture
- minimum efficacious daily dose ([8]; given qd for 5 days): 12.5 mg/kg
- reduction of the parasite burden ([8]; once daily dosing at and above 12.5 mg/kg, liver, spleen and bone-marrow): more than 99%
